Data from patent publication US11571421B2, “GABAA positive allosteric modulator compounds for treatment of itch and/or dermatitis” (NeuroCycle Therapeutics, Inc., priority 2018, dated 2023).
“And” between values parts separate entries of the source, which are not always exact repeats. Equal values may be shown once.

Assays:
Format in all cases: in vivo
[1] = test system: Histamine-Induced Itch Model in Male C57BL/6 Mice; assay: Histamine-Induced Itch Model (Example 3); details: oral gavage 90 min before 100 μg histamine cheek injection; 1, 3, 10, 30 and 100 mg/kg
Protocol: PF-06372865 (an alpha 2, alpha 3, and alpha 5 agonist; and an alpha 1 antagonist) is assessed for its antipruritic effects against a cheek injection of 100 μg histamine in wild-type C57BL/6 mice. The mice are dosed with PF-06372865 by oral gavage ninety (90) minutes before histamine injection. Doses of PF-06372865 are vehicle, 1, 3, 10, 30 and 100 mg/kg.

Male C57BL/6 Mice = assay: Sedative effects, open field arena activity (Example 4); details: per oral 1, 3, 10, 30 and 100 mg/kg; recorded for one hour starting one hour after injection
Protocol: In order to exclude any sedative effects PF-06372865 might have on mice, a dose-response experiment is included. The mice receive per oral injections of PF-06372865 in varying doses (vehicle, 1, 3, 10, 30 and 100 mg/kg). After injection, the mice are placed in an open field arena and their activity is recorded for one hour starting one hour after injection.

[2] = test system: Dry Itch Model in Male C57BL/6 Mice; assay: Dry skin itch model (Example 8); details: 10 mg/kg intraperitoneal; 15 to 210 min after injection
Protocol: In order to assess the antipruritic effect of PF-06372865 in another clinically relevant disease, the dry skin model of dermatitis is used. In the dry skin model, mice are treated with a mixture of acetone and diethylether (1:1) on the shaved nape of the neck for 15 s, followed by distilled water for 30 sec, twice daily for 10 days. On the day of the experiment, mice received intraperitoneal injection of vehicle or PF-06372865 (10 mg/kg). The number of scratching bouts directed to the nape of the neck between 15 to 210 min after injection are recorded.

[3] = test system: Chloroquine (CQ)-Induced Itch Model in Male C57BL/6 Mice; assay: Chloroquine Induced Itch Model, PF-06372865 (Example 1)
Protocol: PF-06372865 was evaluated as an antipruritic and/or antidermatitis agent using a Chloroquine Induced Itch Model in male C57BL/6 mice.
Male C57BL/6 Mice (8-10 weeks) were used in the study. Animals were procured from CRL, Hylasco (CPSCEA registered animal supplier).
Mice were housed one per cage and maintained at controlled environmental conditions with 12-h light and dark cycles. The temperature and humidity of the room were maintained between 22±3° C. and 55±5%, respectively. The maximum and minimum temperature and relative humidity in the experimental rooms were recorded once daily. […]
PF-06372865 was weighed into a clean mortar. Liquefied Solutol (i.e., Polyoxyl 15 Hydroxystearate) was added drop wise and triturated using a pestle for 2-3 minutes, then Glycerol formal was added and mixed in same fashion. The volume was made up by slowly adding the required volume of water. The resulting mixture was mixed well using mild vortexing to provide a homogeneous suspension. (Details in below chart)
27 mg of chloroquine phosphate was weighed in a clean glass container. 6 mL PBS was added, and the resulting mixture was mixed well using mild vortexing to form the desired strength solution.
The right-side cheek area of all the animals was shaved with animal clippers 1 day prior to the experiment. Animals were randomized into different treatment groups (n=9/group) based on body weight to avoid variability in weights across groups. NCT10004 Phosphate and PF-06372865 formulations and chloroquine phosphate solution were prepared on the day of the experiment.
Animals were dosed per oral with respective treatment group using a dose volume of 10 ml/kg. Times of dosing were recorded. Immediately after compound treatment, animals were kept in an empty transparent chamber (23 cm length×17 cm width) for acclimatization and observation.
Ninety (90) minutes post compound dosing, 50-μl of chloroquine phosphate solution (a 200-μg dose) was injected intracutaneously into the animal's right cheek. Animals were returned to the same chamber for observation. Animals were observed by an observer blind to the treatment group for a period of 30 minutes post chloroquine injection. Total number of bouts of scratching directed at the ipsilateral cheek were recorded for 30 minutes.

[4] = 0.3 mg/kg PO, individual animals

CCn1cnc2c(-c3ccc(F)c(-c4ccc(S(=O)(=O)CC)cc4OC)c3)cnnc21 [PF-06372865]
scratching bouts, histaminergic itch [1]: dose-dependent reduction of scratching bouts | open field activity compared to vehicle (Male C57BL/6 Mice): significant increase in activity | scratching bouts compared to vehicle injection [2]: significant reduction in scratching bouts | Scratching bouts (Nos.) in 30 min, 0-5 min ([3]; 0.3 mg/kg PO, MEAN, N=9): 2.22 Nos. | Scratching bouts (Nos.) in 30 min, 5-10 min ([3]; 0.3 mg/kg PO, MEAN, N=9): 6.67 Nos. | Scratching bouts (Nos.) in 30 min, 10-15 min ([3]; 0.3 mg/kg PO, MEAN, N=9): 26.22 Nos. | Scratching bouts (Nos.) in 30 min, 15-20 min ([3]; 0.3 mg/kg PO, MEAN, N=9): 24.67 Nos. | Scratching bouts (Nos.) in 30 min, 20-25 min ([3]; 0.3 mg/kg PO, MEAN, N=9): 21.00 Nos. | Scratching bouts (Nos.) in 30 min, 25-30 min ([3]; 0.3 mg/kg PO, MEAN, N=9): 0.00 Nos. | Total Scratching bouts ([3]; 0.3 mg/kg PO, MEAN, N=9): 80.78 Nos./30 min | Scratching bouts (Nos.) in 30 min, 0-5 min [3, 4]: 0 Nos. (6×) and 1 Nos. and 15 Nos. and 4 Nos. | Scratching bouts (Nos.) in 30 min, 5-10 min [3, 4]: 56 Nos. and 0 Nos. (6×) and 1 Nos. and 3 Nos. | Scratching bouts (Nos.) in 30 min, 10-15 min [3, 4]: 47 Nos. and 0 Nos. (3×) and 19 Nos. and 46 Nos. and 76 Nos. and 21 Nos. and 27 Nos. | Scratching bouts (Nos.) in 30 min, 15-20 min [3, 4]: 10 Nos. and 25 Nos. (2×) and 39 Nos. and 13 Nos. and 36 Nos. and 31 Nos. and 11 Nos. and 32 Nos. | Scratching bouts (Nos.) in 30 min, 20-25 min [3, 4]: 0 Nos. (3×) and 49 Nos. and 33 Nos. and 27 Nos. (2×) and 24 Nos. and 29 Nos. | Scratching bouts (Nos.) in 30 min, 25-30 min [3, 4]: 0 Nos. | Total Scratching bouts [3, 4]: 113 Nos./30 min and 74 Nos./30 min and 25 Nos./30 min and 72 Nos./30 min and 33 Nos./30 min and 110 Nos./30 min and 149 Nos./30 min and 56 Nos./30 min and 95 Nos./30 min | Scratching bouts (Nos.) in 30 min, 0-5 min ([3]; 1 mg/kg PO, MEAN, N=9): 1.22 Nos. | Scratching bouts (Nos.) in 30 min, 5-10 min ([3]; 1 mg/kg PO, MEAN, N=9): 20.56 Nos. | Scratching bouts (Nos.) in 30 min, 10-15 min ([3]; 1 mg/kg PO, MEAN, N=9): 9.11 Nos. | Scratching bouts (Nos.) in 30 min, 15-20 min ([3]; 1 mg/kg PO, MEAN, N=9): 23.11 Nos. | Scratching bouts (Nos.) in 30 min, 20-25 min ([3]; 1 mg/kg PO, MEAN, N=9): 8.33 Nos. | Scratching bouts (Nos.) in 30 min, 25-30 min ([3]; 1 mg/kg PO, MEAN, N=9): 8.11 Nos. | Total Scratching bouts ([3]; 1 mg/kg PO, MEAN, N=9): 70.44 Nos./30 min | Scratching bouts (Nos.) in 30 min, 0-5 min ([3]; 1 mg/kg PO, individual animals): 0 Nos. (6×) and 1 Nos. and 8 Nos. and 2 Nos. | Scratching bouts (Nos.) in 30 min, 5-10 min ([3]; 1 mg/kg PO, individual animals): 22 Nos. and 0 Nos. (2×) and 18 Nos. (2×) and 13 Nos. and 62 Nos. and 49 Nos. and 3 Nos. | Scratching bouts (Nos.) in 30 min, 10-15 min ([3]; 1 mg/kg PO, individual animals): 9 Nos. (2×) and 0 Nos. (3×) and 13 Nos. and 1 Nos. and 4 Nos. and 46 Nos. | Scratching bouts (Nos.) in 30 min, 15-20 min ([3]; 1 mg/kg PO, individual animals): 41 Nos. and 14 Nos. and 28 Nos. (2×) and 16 Nos. and 45 Nos. and 25 Nos. and 11 Nos. and 0 Nos. | Scratching bouts (Nos.) in 30 min, 20-25 min ([3]; 1 mg/kg PO, individual animals): 28 Nos. and 0 Nos. (5×) and 18 Nos. and 8 Nos. and 21 Nos. | Scratching bouts (Nos.) in 30 min, 25-30 min ([3]; 1 mg/kg PO, individual animals): 6 Nos. and 25 Nos. and 4 Nos. and 0 Nos. (4×) and 14 Nos. and 24 Nos. | Total Scratching bouts ([3]; 1 mg/kg PO, individual animals): 106 Nos./30 min and 39 Nos./30 min and 81 Nos./30 min and 26 Nos./30 min and 93 Nos./30 min and 95 Nos./30 min and 71 Nos./30 min and 22 Nos./30 min and 101 Nos./30 min | Scratching bouts (Nos.) in 30 min, 0-5 min ([3]; 3 mg/kg PO, MEAN, N=9): 4.89 Nos. | Scratching bouts (Nos.) in 30 min, 5-10 min ([3]; 3 mg/kg PO, MEAN, N=9): 3.89 Nos. | Scratching bouts (Nos.) in 30 min, 10-15 min ([3]; 3 mg/kg PO, MEAN, N=9): 11.44 Nos. | Scratching bouts (Nos.) in 30 min, 15-20 min ([3]; 3 mg/kg PO, MEAN, N=9): 9.89 Nos. | Scratching bouts (Nos.) in 30 min, 20-25 min ([3]; 3 mg/kg PO, MEAN, N=9): 4.33 Nos. | Scratching bouts (Nos.) in 30 min, 25-30 min ([3]; 3 mg/kg PO, MEAN, N=9): 3.44 Nos. | Total Scratching bouts ([3]; 3 mg/kg PO, MEAN, N=9): 37.89 Nos./30 min
